Source: PMC4735555, “Crystal structure of the N-myristoylated lipopeptide-bound MHC class I complex” (Nature Communications, 2016)

Experiments:
Mamu-B*098 = assay: Biolayer interferometry binding to β2m-linked Mamu-B*098; set-up: species or system rhesus macaque; conditions: Octet RED96; biotinylated β2m-linked Mamu-B*098; lipopeptide 10 μM, 45 min, then 30 min without; 20 mM Tris-HCl pH 7.5, 150 mM NaCl, 2% DMSO; 30 °C; representative of three independent experiments
Source text: (§1) Single-chain MHC proteins in which β2m was linked via a Gly-Ser linker (GGGGSGGSGSGGGSS) to the ectodomain of either Mamu-B*098 or Mamu-A*02, followed by a biotinylation sequence peptide (LHHILDAQKMVWNHR), were also expressed in E. coli and were purified in a similar manner to the trimer complex of Mamu-B*098, β2m and C14nef5. The β2m-linked Mamu-B*098 protein was refolded without C14nef5, whereas the β2m-linked Mamu-A*02 protein was refolded in the presence of the YY9 peptide (YTSGPGIRY). These recombinant proteins (3 mg) were biotinylated by being incubated for 12 h at 20 °C with 2 μg of BirA enzyme (Sigma-Aldrich, St Louis, MO) in a biotinylation buffer containing 100 mM Tris-HCl pH 8.0, 5 mM MgCl2, 4.5 mM ATP and 4 mM D-biotin, and were purified by size-exclusion chromatography.
(§2) The binding of ligands to MHC class I molecules was analysed using the Octet RED96 system equipped with a streptavidin-conjugated biosensor (Pall ForteBio, Menlo Park, CA) according to the manufacturer's instructions. Biotinylated β2m-linked Mamu-B*098 and Mamu-A*02 proteins were immobilized on the sensor tip surface with a signal magnitude of ∼5.0 nm. […] After reference subtraction, binding signals were analysed using the BIAevaluation 3.1 software. […]

[1] = test system: 2N5.1 (Mamu-B*098 Cys167 to Ser mutant); assay: Presentation of C14nef5 to 2N5.1 by the cysteine to serine (position 167) mutant of Mamu-B*098; type: cell-based, rhesus macaque; conditions: data not shown
2N5.1 TCR = assay: SPR binding of soluble 2N5.1 TCR to antigen-loaded Mamu-B*098; set-up: species or system rhesus macaque; conditions: in words; Biacore 3000, 30 °C; soluble 2N5.1 TCR αβ dimer; lipopeptide-loaded Mamu-B*098 immobilized; pH 7.5
Source text: as §1
TCR dimers were generated by the disulfide-linked TCR method. […]
as §2, with “instructions.” for “instructions. Biotinylated β2m-linked Mamu-B*098 and Mamu-A*02 proteins were immobilized on the sensor tip surface with a signal magnitude of ∼5.0 nm.”

## C14-Gly-Gly-Ala-Ile-Ser [C14nef5, N-myristoylated 5-mer peptide (C14-Gly-Gly-Ala-Ile-Ser; C14nef5) derived from the SIV Nef protein]
Mamu-B*098
  physical interaction with immobilized Mamu-B*098 (biolayer interferometry): demonstrated for Mamu-B*098
[1]
  effect of Cys167 to Ser mutation on ability of Mamu-B*098 to present C14nef5 to 2N5.1: affected neither the overall secondary structure nor the ability of Mamu-B*098 to present C14nef5 to 2N5.1
2N5.1 TCR
  interaction of 2N5.1 TCR with lipopeptide-loaded Mamu-B*098 (SPR): high-affinity interaction
